Assay results reported in US20260139314A1, “COMPOSITION AND METHOD FOR PREDICTING SULFONYLUREA DEPENDENCY USING GIPR MARKER” (Seoul National University Hospital, priority 2022, published 2026).

Tests used:
[1] = system: INS1 rat insulinoma cells; assay: GIP-induced insulin secretion (ELISA); format: cell-based; settings: GIPR inhibitor 100 nM, 24 h
Experimental: INS1 rat insulinoma cells were transfected with 80-nM siRNA for Gipr and negative control.
(c) ELISA: Insulin secretion induced by GIP treatment (50 nM for 1 hour) was attenuated by siGipr. • siGipr, siRNA for Gipr; siNS, siRNA for negative control; siRNA, small interfering RNA; NS, no significant difference
(§1) INS1 rat insulinoma cells were treated with a GIPR inhibitor (rat GIP(3-30), 100 nM, 24 h) and the inhibition of insulin secretion by GIP was confirmed. Insulin secretion was stimulated with low-dose SU (50 nM glimepiride for 30 minutes) and measured using an ELISA kit.
Experiments were conducted to suppress the expression of the rat Gipr gene, which shares the same gene sequence as human GIPR.

[2] = system: INS1 rat insulinoma cells; assay: Insulin secretion stimulated with low-dose SU (50 nM glimepiride, ELISA); format: cell-based; settings: non-diabetic conditions; GIPR inhibitor 100 nM, 24 h; 50 nM glimepiride for 30 minutes
Experimental: INS1 rat insulinoma cells were transfected with siGipr and siNS (80 nM) and stimulated for insulin secretion with low-dose SU (50 nM glimepiride for 30 minutes). Insulin secretion was measured using an ELISA kit.
(a) Physiological condition (b) Diabetic condition simulated by pre-treating with 15-mM glucose and 150-μM palmitic acid for 24 hours (glucolipotoxicity).
as §1
Next, the SU response was examined based on Gipr suppression. […] However, under diabetic conditions—chronic exposure to high glucose and fatty acids (glucolipotoxicity)—Gipr suppression increased insulin secretion in response to low-dose SU (FIG. 4b).

rat GIP(3-30) was tested, and the “Inhibition of insulin secretion by GIP” value [1] was “confirmed” and the “Insulin secretion by SU” value [2] was “trend of enhanced insulin secretion”.
